# Source: ChEMBL document CHEMBL1147429, “Synthesis and evaluation of novel bacterial rRNA-binding benzimidazoles by mass spectrometry” (Bioorg Med Chem Lett, 2004)
# System: Ribosomal RNA A-site
# Assay: Binding affinity for the 16S ribosomal RNA A-site of Escherichia coli
# Type: nucleic-acid assay
row,Compound,Kd [µM]
1,Clc1cc2nc(C3CCNCC3)[nH]c2cc1Cl,174
2,O=[N+]([O-])c1ccc(Cn2c(C3CCNCC3)nc3cc(Cl)c(Cl)cc32)cc1,241
3,Clc1cc2nc(C3CCNCC3)n(Cc3ccncc3)c2cc1Cl,60
4,COc1ccc2[nH]c(C3CCNCC3)nc2c1,588
5,O=[N+]([O-])c1ccc2[nH]c(-c3cccnc3)nc2c1,> 1000
6,CCCCn1c(C2CCNCC2)nc2cc(Cl)c(Cl)cc21,278
7,Clc1ccc2[nH]c(C3CCNCC3)nc2c1,508
8,Clc1cc2nc(C3CCNCC3)n(Cc3ccc(Br)cc3)c2cc1Cl,434
9,Brc1ccc2[nH]c(C3CCNCC3)nc2c1,361
10,Clc1ccc2scc(Cn3c(C4CCNCC4)nc4cc(Cl)c(Cl)cc43)c2c1,> 1000
11,O=[N+]([O-])c1cc(C(F)(F)F)ccc1-n1c(C2CCNCC2)nc2cc(Cl)c(Cl)cc21,122
12,FC(F)(F)c1ccc(Cn2c(C3CCNCC3)nc3cc(Cl)c(Cl)cc32)cc1,214
13,N[C@H]1CC[C@@H](c2nc3cc([N+](=O)[O-])ccc3[nH]2)C1,221
14,c1cc2nc(C3CCNCC3)nc-2c[nH]1,110
15,Cc1ccc2[nH]c(C3CCNCC3)nc2c1,439
16,Nc1ccc(-c2nc3cc([N+](=O)[O-])ccc3[nH]2)cc1,> 1000
17,Nc1ccc2[nH]c(C3CCNCC3)nc2c1,500
18,c1ccc2[nH]c(C3CCNCC3)nc2c1,108
19,O=[N+]([O-])c1ccc2[nH]c(-c3ccncc3)nc2c1,> 1000
20,Cc1ccc(OC(=O)n2c(C3CCNCC3)nc3cc(Cl)c(Cl)cc32)cc1,> 1000
21,Clc1cc2nc(C3CCNCC3)n(-c3ncccn3)c2cc1Cl,672
22,CN1CCC(c2nc3cc([N+](=O)[O-])ccc3[nH]2)CC1,> 1000
23,NC1CCCC(c2nc3cc([N+](=O)[O-])ccc3[nH]2)C1 (stereo not drawn),105
24,c1nc2nc(C3CCNCC3)nc-2c[nH]1,914

row,Compound,Kd [µM]
1,CC(=O)N1CCC(c2nc3cc([N+](=O)[O-])ccc3[nH]2)CC1,> 1000
2,Cc1ccc(S(=O)(=O)n2c(C3CCNCC3)nc3cc(Cl)c(Cl)cc32)cc1,> 1000
3,Nc1cccc(-c2nc3cc([N+](=O)[O-])ccc3[nH]2)c1,> 1000
4,Clc1cc2nc(C3CCNCC3)n(Cc3ccc(I)cc3)c2cc1Cl,198
5,FC(F)(F)c1ccc2[nH]c(C3CCNCC3)nc2c1,281
6,O=C(O)Cn1c(C2CCNCC2)nc2cc(Cl)c(Cl)cc21,> 1000
7,Fc1c(F)c(C(F)(F)F)c(F)c(F)c1Cn1c(C2CCNCC2)nc2cc(Cl)c(Cl)cc21,117
8,CC(C)(C)c1ccc(Cn2c(C3CCNCC3)nc3cc(Cl)c(Cl)cc32)cc1,575
9,Fc1c(F)c(F)c(Cn2c(C3CCNCC3)nc3cc(Cl)c(Cl)cc32)c(F)c1F,237
10,Clc1cc2nc(C3CCNCC3)n(Cc3cccnc3)c2cc1Cl,67
11,c1c[nH]c2nc(C3CCNCC3)nc-2c1,535
12,N[C@H]1CC[C@@H](c2nc3cc([N+](=O)[O-])ccc3[nH]2)CC1,123
13,Cn1c(C2CCNCC2)nc2cc(Cl)c(Cl)cc21,239
14,c1ccc2sc(C3CCNCC3)nc2c1,> 1000
15,Cc1cc2[nH]c(C3CCNCC3)nc2cc1Cl,380
16,Clc1cc2nc(C3CCNCC3)n(Cc3ccccc3Br)c2cc1Cl,593
17,COC(=O)Cn1c(C2CCNCC2)nc2cc(Cl)c(Cl)cc21,301
18,FC(F)(F)c1ccc(Cn2c(C3CCNCC3)nc3cc(Cl)c(Cl)cc32)c(C(F)(F)F)c1,159
19,O=[N+]([O-])c1ccc2[nH]c(C3CCNCC3)nc2c1,308
20,O=[N+]([O-])c1ccc(-n2c(C3CCNCC3)nc3cc(Cl)c(Cl)cc32)c([N+](=O)[O-])c1,243
21,Clc1cc2nc(C3CCNCC3)n(Cc3cccc(I)c3)c2cc1Cl,405
22,COC(=O)c1ccc(Cn2c(C3CCNCC3)nc3cc(Cl)c(Cl)cc32)cc1,224
23,O=[N+]([O-])c1ccc2[nH]c(C3CCCCC3)nc2c1,> 1000
24,"N[C@H]1C(O)O[C@H](CO)C(O)[C@@H]1O (single isomer, unassigned) [GLUCOSAMINE]",~1000
